molecular target: T1, GCase (Homo sapiens, UniProt P04062); assay: activation of GCase in a live cell PFB assay in HELA cells; type: cell-based
T1 construct: endogenous in cells; host or cells: HeLa cells
T1 sequence (P04062 40-536): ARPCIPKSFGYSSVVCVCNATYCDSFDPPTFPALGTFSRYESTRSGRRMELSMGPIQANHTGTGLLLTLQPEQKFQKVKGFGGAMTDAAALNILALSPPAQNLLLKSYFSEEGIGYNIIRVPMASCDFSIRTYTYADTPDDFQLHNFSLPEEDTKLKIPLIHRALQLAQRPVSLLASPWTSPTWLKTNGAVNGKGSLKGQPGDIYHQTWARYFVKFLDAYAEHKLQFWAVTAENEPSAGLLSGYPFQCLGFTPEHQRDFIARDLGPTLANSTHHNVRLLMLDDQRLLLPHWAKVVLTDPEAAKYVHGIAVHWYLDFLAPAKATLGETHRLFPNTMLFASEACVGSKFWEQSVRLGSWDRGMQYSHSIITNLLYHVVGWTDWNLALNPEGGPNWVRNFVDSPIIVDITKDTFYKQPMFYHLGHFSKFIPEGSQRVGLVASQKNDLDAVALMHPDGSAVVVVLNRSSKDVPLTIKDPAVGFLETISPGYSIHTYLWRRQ

SMILES | EC50 [µM]
COc1ccc(OCC2CCN(Cc3noc(C4CCCO4)n3)CC2)cc1 (stereo not drawn) [Compound 471] | 50 to 100
Cc1cnc2c(C(=O)N3CCCC(COc4ccccc4C)C3)c(-c3ccccc3)n(C)c2n1 (stereo not drawn) [Compound 257, (3,5-Dimethyl-6-phenyl-5H-pyrrolo[2,3-b]pyrazin-7-yl)(3-((o-tolyloxy)methyl)piperidin-1-yl)methanone] | 50 to 100
COc1ccc(OCC2CCN(Cc3nnc(C4CC(N)C4)n3C)CC2)cc1 (stereo not drawn) [Compound 473] | > 100
O=C(c1ccc2cc[nH]c2c1)N1CCC(Oc2cncc(C(F)(F)F)c2)CC1 [Compound 307, (1H-Indol-6-yl)(4-((5-(trifluoromethyl)pyridin-3-yl)oxy)piperidin-1-yl)methanone] | 10 to 50
COc1ccc(OCC2CCN(C(=O)NCCc3cn[nH]c3)CC2)cc1 [Compound 432] | 50 to 100
O=C(c1cc(-c2cccc(F)c2)no1)N1CCCC(COc2ccccc2)C1 (stereo not drawn) [Compound 197] | 10 to 50
FC(F)Cn1ncc2cnc(N3CCCC(COc4cccnc4C(F)(F)F)C3)nc21 (stereo not drawn) [Compound 119, 1-(2,2-difluoroethyl)-6-(3-(((2-(trifluoromethyl)pyridin-3-yl)oxy)methyl)piperidin-1-yl)-1H-pyrazolo[3,4-d]pyrimidine] | 10 to 50
COc1ccc(OCC2CCN(C(=O)NCCc3nccs3)CC2)cc1 [Compound 480] | > 100
Cc1ccccc1OCC1CCCN(C(=O)c2c(C3CC3)n(-c3ccccc3)c3nccnc23)C1 (stereo not drawn) [Compound 255, (6-cyclopropyl-5-phenyl-5H-pyrrolo[2,3-b]pyrazin-7-yl)(3-((o-tolyloxy)methyl)piperidin-1-yl)methanone] | 10 to 50
COc1ccc(OCC2CCN(c3ncnc4cc[nH]c34)CC2)cc1 [Compound 427] | 10 to 50
O=C(c1cnc(-c2nncs2)cn1)N1C[C@@H]2[C@@H](COc3cccc(C(F)(F)F)n3)[C@@H]2C1 [Compound 247, (1R,5S,6S)-3-[5-(1,3,4-Thiadiazol-2-yl)pyrazine-2-carbonyl]-6-({[6-(trifluoromethyl)pyridin-2-yl]oxy}methyl)-3-azabicyclo[3.1.0]hexane] | > 100
C[C@@H]1CC[C@H](COc2ccc(C(F)(F)F)nc2)CN1c1cnc2cnn(CC(F)F)c2n1 [Compound 272, 1-(2,2-Difluoroethyl)-6-((2R,5S)-2-methyl-5-(((6-(trifluoromethyl)pyridin-3-yl)oxy)methyl)piperidin-1-yl)-1H-pyrazolo[3,4-b]pyrazine] | 10 to 50
C[C@H]1CC[C@H](COc2cccnc2C(F)(F)F)CN1c1cnc2cnn(CC(F)F)c2n1 [Compound 78, 3-{[(3S,6S)-1-[1-(2,2-Difluoroethyl)pyrazolo[3,4-b]pyrazin-6-yl]-6-methylpiperidin-3-yl]methoxy}-2-(trifluoromethyl)pyridine] | > 100
COc1ccc(OCC2CCN(C(=O)COCC3CCCO3)CC2)cc1 (stereo not drawn) [Compound 422] | 10 to 50
CSCc1ccc(C(=O)N2CCC(OCc3ccccc3)CC2)o1 [Compound 435] | > 100
Cn1c(-c2ccccc2)cc2ncc(C(=O)N3CCCC(COc4cccnc4C(F)(F)F)C3)nc21 (stereo not drawn) [Compound 50, (5-Methyl-6-phenyl-5H-pyrrolo[2,3-b]pyrazin-3-yl)(3-(((2-(trifluoromethyl)pyridin-3-yl)oxy)methyl)piperidin-1-yl)methanone] | 10 to 50

Second part, the compound after the results:

EC50 [µM] | SMILES
10 to 50 | O=C(N1CCC(Oc2ccccc2)CC1)C1(c2ccccc2)CCCC1 [Compound 404, 4-Phenoxy-1-(1-phenylcyclopentanecarbonyl)piperidine]
10 to 50 | O=C(N1CCCC(COc2ccccc2)C1)C12CC3CC(CC(C3)C1)C2 (stereo not drawn) [Compound 204]
10 to 50 | C[C@H]1CCN(c2cnc3cnn(CC(F)F)c3n2)C[C@@H]1COc1cccnc1C(F)(F)F [Compound 48c, 1-(2,2-difluoroethyl)-6-((3R,4S)-4-methyl-3-(((2-(trifluoromethyl)pyridin-3-yl)oxy)methyl)piperidin-1-yl)-1H-pyrazolo[3,4-b]pyrazine]
< 10 | FC(F)Cn1ncc2ncc(N3CCC(COc4ccc(C(F)(F)F)nc4)CC3)nc21 [Compound 316, 1-(2,2-Difluoroethyl)-6-(4-(((6-(trifluoromethyl)pyridin-3-yl)oxy)methyl)piperidin-1-yl)-1H-pyrazolo[3,4-b]pyrazine]
< 10 | CN(CC1CCCN(c2ncccc2C(F)(F)F)C1)c1cnc2cnn(CC(F)F)c2n1 (stereo not drawn) [Compound 289, 1-(2,2-Difluoroethyl)-N-methyl-N-((1-(3-(trifluoromethyl)pyridin-2-yl)piperidin-3-yl)methyl)-1H-pyrazolo[3,4-b]pyrazin-6-amine]
10 to 50 | FC(F)(F)c1ncccc1OC[C@@H]1[C@H]2CN(c3cncc(-c4nncs4)n3)C[C@@H]12 [Compound 40, (1R,5S,6S)-3-[6-(1,3,4-Thiadiazol-2-yl)pyrazin-2-yl]-6-({[2-(trifluoromethyl)pyridin-3-yl]oxy}methyl)-3-azabicyclo[3.1.0]hexane]
< 10 | C[C@H]1CC[C@@H](COc2cccnc2C(F)(F)F)CN1c1cnc2cnn(CC(F)F)c2n1 [Compound 77, 1-(2,2-Difluoroethyl)-6-((2S,5R)-2-methyl-5-(((2-(trifluoromethyl)pyridin-3-yl)oxy)methyl)piperidin-1-yl)-1H-pyrazolo[3,4-b]pyrazine]
< 10 | CC(=O)N1CCC(n2ncc3ncc(N4CCCC(COc5ccccc5C(F)(F)F)C4)nc32)CC1 (stereo not drawn) [Compound 111, 1-(4-(6-(3-((2-(trifluoromethyl)phenoxy)methyl)piperidin-1-yl)-1H-pyrazolo[3,4-b]pyrazin-1-yl)piperidin-1-yl)ethan-1-one]
< 10 | C[C@@H]1CC[C@@H](COc2cccnc2C(F)(F)F)CN1c1cnc2cnn(CC(F)F)c2n1 [Compound 79, 1-(2,2-Difluoroethyl)-6-((2R,5R)-2-methyl-5-(((2-(trifluoromethyl)pyridin-3-yl)oxy)methyl)piperidin-1-yl)-1H-pyrazolo[3,4-b]pyrazine]
< 10 | C[C@@H]1CC[C@H](COc2cccnc2C(F)(F)F)CN1c1cnc2cnn(CC(F)F)c2n1 [Compound 80, 1-(2,2-Difluoroethyl)-6-((2R,5S)-2-methyl-5-(((2-(trifluoromethyl)pyridin-3-yl)oxy)methyl)piperidin-1-yl)-1H-pyrazolo[3,4-b]pyrazine]
< 10 | CC1CC(COc2cccnc2C(F)(F)F)CN(c2cncc(-c3nncs3)n2)C1 (single isomer, unassigned) [Compound 262b]
< 10 | CC(=O)N1CCC(c2cc3ncc(N4CCCC(COc5cccnc5C(F)(F)F)C4)nc3n2C)CC1 (stereo not drawn) [Compound 73, 1-(4-(5-methyl-3-(3-(((2-(trifluoromethyl)pyridin-3-yl)oxy)methyl)piperidin-1-yl)-5H-pyrrolo[2,3-b]pyrazin-6-yl)piperidin-1-yl)ethan-1-one]
< 10 | FC(F)Cn1ncc2ncc(N3CCCC(COc4cccnc4C(F)(F)F)C3)nc21 (stereo not drawn) [Compound 13, 3-({1-[1-(2,2-difluoroethyl)pyrazolo[3,4-b]pyrazin-6-yl]piperidin-3-yl}methoxy)-2-(trifluoromethyl)pyridine]
< 10 | CC1CCC(COc2cccnc2C(F)(F)F)CN1c1cnc2cnn(CC(F)(F)F)c2n1 (stereo not drawn) [Compound 122, 6-(2-Methyl-5-(((2-(trifluoromethyl)pyridin-3-yl)oxy)methyl)piperidin-1-yl)-1-(2,2,2-trifluoroethyl)-1H-pyrazolo[3,4-b]pyrazine]
